Experimental data published in patent US11091429B2, “Organic compounds” (Givaudan SA, priority 2012, dated 2021).
“Also recorded” adds a separate entry of the source.

How the values were obtained:
Tasting in cheese sauce = conditions: 0.5 PPM in cheese sauce 5% fat 1.6% salt
Procedure: (§1) The following formulations were prepared and tasted by trained panelists.
Cheese sauce: 5% fat 1.6% salt
(§2) Samples were prepared and evaluated by expert tasters. Tasters were asked to describe the samples focusing on authentic taste, mouthfeel, fullness, salivation, salty-ness, umami, sweetness, juiciness, richness, long lastingness and fattiness.
Cheese Sauce: 5% Fat 1.6% Salt

Test on mouthwash = conditions: 1 ppm, Paradontax alcohol free mouthwash
Procedure: (§3) Samples were evaluated by expert tasters. Tasters were asked to describe the samples focusing on authentic taste, mouthfeel, fullness, salty-ness, salivation, umami, sweetness, juiciness, richness, long lastingness and fattiness.
Base: Paradontax alcohol free mouthwash.

Test on Breezer Orange = conditions: 0.5 ppm, 4% alcohol
Procedure: Samples were evaluated by expert tasters. Tasters were asked to describe the samples focusing on authentic taste, alcohol impact, juiciness, mouthfeel, fullness, salivation, sweetness, bitterness, richness, long lastingness and fattiness.

Tasting in fish sauce = assay: Tasting in fish sauce
Procedure: as §1
Salt level pure product between 5-40%
Salt level in application 0.3-1.0%
as §2

[1] = Tasting in strawberry drink; conditions: 2 ppm; 7% sucrose, 0.1% citric acid, strawberry flavour 0.015%
In short: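 Strawberry drink base (water, 7% sucrose, 0.1% citric acid, 0.015% proprietary strawberry flavour) served as matrix for descriptive evaluation. Expert panel rated umami, sweetness, saltiness, salivation, juiciness, richness, fullness, fattiness, mouthfeel, authentic taste and long-lastingness.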

[2] = Tasting of chicken filet fried in oil
Procedure: as §1
Differentiator high temperature 100-250 degrees Celsius in a frying in oil process
C18:2 gaba @ 2.0 PPM in 135 gram frying oil (blue band 82% Fat) 450 gram chicken filet 2 minutes high fire and 5 minutes medium fire.

[3] = Tasting in low fat salad dressing; conditions: 0.5 ppm in low fat salad dressing (13.6% fat)
Procedure: as §1
low fat salad dressing (13.6% Fat, 8%, carbohydrates (of which 5.3% sugar))
(§4) Samples were prepared and evaluated by expert tasters. Tasters were asked to describe the samples focusing on authentic taste, mouthfeel, fullness, salty-ness, salivation, umami, sweetness, juiciness, richness, long lastingness and fattiness.
Calve Salad Dressing Low Fat (13.6% Fat):
Base is Calve salad dressing (market product)
as §2
Low fat salad dressing (13.6% Fat)

Test on Tang = conditions: 0.5 ppm, orange flavoured Tang
Procedure: In an orange flavoured Tang powdered soft drink (market product) sweetened with sucrose plus high intensity sweetener and containing citric acid, C18:2-gaba and C18:2-pro were tested.
All samples were evaluated by expert tasters. Tasters were asked to describe the samples focusing on authentic taste, mouthfeel & body, enhancement, richness, juiciness, long lastingness, salivation, sweetness, masking off notes of high intensity sweetener
Base is Orange Flavoured Tang

[4] = Tasting in UHT sweetened banana flavoured milk; conditions: banana flavour 0.04%
Procedure: UHT Sweetened Banana Flavoured Milk, With Different Fat Levels
In a UHT milk with 0% and 3% fat sweetened with 4% sucrose by weight, flavoured with proprietary banana flavour dosed at 0.04%. C18:2 gaba was added at 0.25 ppm, 0.5 ppm and 1 ppm.
(§5) Samples were evaluated by expert tasters. Tasters were asked to describe the samples focusing on authentic taste, mouthfeel, fullness, salivation, sweetness, juiciness, richness, long lastingness and fattiness.

[5] = Test in chocolate flavoured drink; conditions: 2 ppm; water, 4% sucrose, chocolate flavour 0.03%
Procedure: as §4
Test in Chocolate Flavoured Drink:
Base: Water, 4% sucrose, proprietary chocolate flavor at 0.03%
as §3
Test in Chocolate Flavoured Drink Flavoured
Base: Water, 4% sucrose, proprietary chocolate flavour @ 0.03%

Test in 3 in 1 coffee = conditions: 1 ppm, 3-in-1 coffee beverage, sucrose 13.2%, creamer (2.1% fat)
Procedure: In a 3 in 1 Coffee beverage from Nestle (market product) sweetened with sucrose 13.2% and containing creamer (2.1% fat) C18:2-gaba was added.
as §5
Base is 3-in-1 Coffee beverage (market product) sweetened with sucrose and containing creamer with fat

[6] = Tasting in vanilla flavoured milk 3.0% fat; conditions: 2 ppm, 4% sugar, vanillin 10 ppm, vanilla extract 0.03%
Procedure: Vanilla Flavoured Milk 3.0% Fat
In a 3% fat milk drink, sweetened with 4% sucrose by weight, flavoured with Vaniline @ 10 ppm and a Vanilla extract @ 0.03% C18:2-gaba, C18:1-ACOA and C18:1-glu were added at 0.5 or 2 ppm.
as §5
Base: Milk 3% fat, 4% sugar, vanillin 10 ppm, vanilla extract 0.03%

Tasting in butter = conditions: 1 ppm in Blueband butter 82% fat 1.5% salt
Procedure: as §1
Blueband 82% fat 1.5% salt

[7] = Tasting in spreadable cheese; conditions: 0.5 PPM in spreadable cheese (Eru)
Procedure: as §1, §4
Test on “Eru Prestige” Spreadable Cheese
Base is Eru prestige (market product)
as §2

[8] = Test on Baileys cream liqueur; conditions: 1 ppm, 17% alcohol
Procedure: Test on Baileys Cream Liqueur:
In Baileys cream liqueur (Market Product) containing 17% alcohol, carbohydrates 25% and 13% fat C18:2-gaba was added at 1 ppm.
Samples were evaluated by expert tasters. Tasters were asked to describe the samples focusing on authentic taste, alcohol impact, mouthfeel, fullness, salivation, sweetness, bitterness, richness, long lastingness and fattiness.
Base is Baileys cream liqueur
as §3
Base: Baileys cream liqueur (containing 17% alcohol, carbohydrates 25% and 13% fat)

[9] = Tasting in yoghurt, cream flavoured; conditions: 2 ppm, cream flavour 0.03%
Procedure: Yoghurt Cream Flavoured, Non-Sweetened and Different Fat Levels
In a Yoghurt containing 0% 1.5% and 3% fat, flavoured with proprietary cream flavour dosed at 0.03%, C18:2-gaba was added at 2 ppm. Samples were evaluated by expert tasters. Tasters were asked to describe the samples focusing on authentic taste, acidity, mouthfeel, fullness, salivation, sweetness, juiciness, richness, long lastingness and fattiness.

SMILES: CCCCC/C=C\C/C=C\CCCCCCCC(=O)NCCCC(=O)O [C18:2-gaba]
- tasting result (Tasting in cheese sauce): Full, Salty, cheese bite expanding
- tasting result (Test on mouthwash): much less bitter, very sweet, smooth, less burning, round spicy, more minty and more cooling
- tasting result (Test on Breezer Orange): more alcoholic, sweeter, more juicy orange, less soapy
- tasting result (Tasting in fish sauce; 0.5 ppm in 1% diluted fish sauce (0.27% salt)): stronger in umami, longer lasting and richer
- tasting result (Tasting in fish sauce; 0.5 ppm in pure fish sauce (27% salt)): strong in body and mouthfeel, more salty, richer with more rounded fish notes
- tasting result [1]: fatty mouthfeel, creamy strawberry, fruity and juicy
- taste of the frying oil ([2]; 2.0 PPM in 135 gram frying oil (blue band 82% Fat)): more savoury golden brown notes
- taste of the chicken ([2]; 2.0 PPM in 135 gram frying oil, 450 gram chicken filet, 2 minutes high fire and 5 minutes medium fire): more juicy, succulent, lingering more white meat
- tasting result [3]: much fuller, creamy, rich, less acidic
- tasting result ([3]; listed as C18:2 gaba): better mouthfeel that was impressively creamy
- tasting result (Test on Tang): enhances sweet juicy orange notes, enhanced mouthfeel; also recorded: the off-notes of the high intensity sweetener were suppressed
- tasting result ([4]; 0.25 ppm, UHT milk 0% fat): fuller banana, more authentic, more sweet
- tasting result ([4]; 0.25 ppm, UHT milk 3% fat): more authentic, less estery and more round
- tasting result ([4]; 0.5 ppm, UHT milk 0% fat): fuller banana, authentic, creamy and sweet, more mouthfeel
- tasting result ([4]; 0.5 ppm, UHT milk 3% fat): creamy banana
- tasting result ([4]; 1 ppm, UHT milk 0% fat): creamy, creamy banana, sweet aftertaste, more mouthfeel and very longlasting
- tasting result ([4]; 1 ppm, UHT milk 3% fat): creamy long lasting and more authentic and more impact
- tasting result [5]: full, sweeter, more vanillic, milk chocolate is enhanced, very long lasting
- tasting result (Test in 3 in 1 coffee): very nice mouthfeel effect, creamy as if coffee creamer is added, more sweet
- tasting result [6]: beany, fatty, authentic, sweet
- tasting result (Tasting in butter): more authentic butter taste, with more mouthfeel
- tasting result [7]: full salty, much more cheese bite, umami, lingering, long lasting
- tasting result ([7]; listed as C18:2 gaba): Full, Salty, cheese bite, more mature
- tasting result [8]: strongly enhanced alcohol effect, more cocoa, very creamy and long lasting aftertaste
- tasting result ([9]; yoghurt 0% fat): less acidic, slight creamy aftertaste
- tasting result ([9]; yoghurt 1.5% fat): very creamy, thick, nice long lasting, whipped cream note
- tasting result ([9]; yoghurt 3% fat): less acidic, much more creamy, very long lasting creamy aftertaste
